# From US20240027453A1, “METHOD FOR DETECTION AND QUANTITATIVE MONITORING OF INFECTIONS WITH HERPESVIRUSES” (The Trustees of Princeton University, priority 2020, published 2024)
# Where two headings read alike, the source gives them in different places.
# Tested on: HCMV
# Type: cell-based
# Description: In example herpesvirus PRM assay methods shown herein, cell pellets were lysed in 2% SDS, 100 mM NaCl, 0.5 mM EDTA, 50 mM Tris, pH 8.2, and 50 μg of protein was reduced and alkylated with 25 mM TCEP and 50 mM CAM respectively for 20 min at 70° C. Proteins were then precipitated via methanol chloroform precipitation (Wessel & Flugg, Anal Biochem. 138(1):141-143, 1984), resuspended in 50 mM HEPES, pH 8.2 and digested overnight with trypsin (50:1 protein:enzyme w/w ratio). Digested peptides were desalted by SDB-RPS StageTip as previously described (Lum et al., Cell Syst., 7(6):[…], 2018; Greco et al., Methods Mol Biol 1410:39-63, 2016; Federspiel & Cristea, Methods Mol Biol., 1977:115-143, 2019).
# Peptides (1.0 μg on column) were analyzed by LC-MS/MS using a Dionex Ultimate 3000 UHPLC coupled online to an EASYSpray ion source and a Q Exactive HF. Peptides were separated on an EASYSpray C18 column (75 μm×25 cm) heated to 50° C. using a linear gradient of 5% B to 32% B over 60 min at a flow rate of 250 nL/min and were ionized at 1.7 kv. Mobile phase A consisted of 0.1% FA in H2O and mobile phase B consisted of 0.1% FA, 2.9% H2O in ACN.
# The PRM method was controlled by a peptide inclusion list with retention time windows of 6 min for selected precursor ions.
# The PRM assay was developed and analyzed using the open-source software Skyline (Maclean et al., Bioinformatics 26(7):966-968, 2010). Summed area under the curve of 3-4 transitions per peptide was used for quantitation. Targeted peptides were normalized to host protein loading control peptides. Peptide values for each sample were scaled to the average of each peptide across all runs. The average of multiple peptides was used as the inferred value for the protein measurement when more than one peptide was quantified (Federspiel et al., PLoS Biol. 17(9):e3000437. Doi: 10.1371/journal.pbio.3000437). PRM quantitation data were graphed using the Python Seaborn and Matplotlib libraries.
# MRC5 primary human fibroblasts (HFs) (ATCC CCL-171) were used as the model system for HSV-1 and HCMV infections and were cultured in complete growth medium (DMEM supplemented with 10% fetal bovine serum and 1% penicillin-streptomycin antibiotics) at 37° C. and 5% CO2. iSLK.219 cells harboring latent KSHV (a gift from Dr. Britt Glaunsinger, University of California, Berkeley) were grown in complete growth medium supplemented with 500 μg/ml hygromycin (ThermoFisher Scientific, 10687010) at 37° C. and 5% CO2. All cells were used for experiments within a maximum of 10 passages.
# Wild type HSV-1 strain 17+ (a gift from Beate Sodeik, Hannover Medical School, Hannover, Germany) was propagated as previously described (Diner et al., 2015). Briefly, PO stocks were generated by electroporating pBAC-HSV-1 into U-2 OS cells. […] In a similar manner, wild type HCMV strain AD169 was produced from BAC electroporation into HFs and working stocks were propagated by infecting HFs at a low level. In both cases, cell-associated virus was released by sonication, combined with supernatant virus, then concentrated by ultracentrifugation (20,000 rpm, 2 hours, 4° C. with SW28 swinging bucket rotor [Beckman Coulter]) over a 10% ficoll (HSV-1) or 20% sorbitol (HCMV) cushion. Virus stock titers were determined by plaque assay for HSV-1 or tissue culture infectious dose (TCID50) for HCMV and infections were performed at a multiplicity of infection (MOI) of 3.
# 12 hours prior to virus infection or reactivation, cells were treated with either the small molecule drug or DMSO/PBS control at an equivalent volume. […] For infection cycles lasting longer than 24 hours, small molecule drugs were re-added to the cell culture medium every 24 hours. Upon collection, cells were rinsed with PBS, scraped into a microcentrifuge tube, pelleted by centrifugation, and rinsed again with PBS.
structure (smiles),measurement,setting,value
"Nc1ccn(C[C@@H](CO)OCP(=O)(O)O)c(=O)n1 [CDV, cidofovir]","gB (P06473) protein, numerical value of heatmap FIG. 6C","DE, timepoint 96",0.9959
same,"sp|P09710|IR01_HCMVA (P09710) protein, numerical value of heatmap FIG. 6C","DE, timepoint 96",0.4967
same,"CVC2 (P16726) protein, numerical value of heatmap FIG. 6C","DE, timepoint 120",0.9588
same,"DBP (P17147) protein, numerical value of heatmap FIG. 6C","DE, timepoint 120",2.035
same,"HELI (P16736) protein, numerical value of heatmap FIG. 6C","DE, timepoint 120",1.128
same,"NEC1 (P16794) protein, numerical value of heatmap FIG. 6C","DE, timepoint 120",1.121
same,"NEC2 (P16791) protein, numerical value of heatmap FIG. 6C","DE, timepoint 120",1.797
same,"RIR1 (P16782) protein, numerical value of heatmap FIG. 6C","DE, timepoint 120",1.313
same,"TRM1 (P16724) protein, numerical value of heatmap FIG. 6C","DE, timepoint 120",1.312
same,"UL4 (P17146) protein, numerical value of heatmap FIG. 6C","DE, timepoint 120",0.635
same,"UL26 (P16762) protein, numerical value of heatmap FIG. 6C","DE, timepoint 120",1.564
same,"UL32 (P08318) protein, numerical value of heatmap FIG. 6C","DE, timepoint 120",1.478
same,"UL34 (P16812) protein, numerical value of heatmap FIG. 6C","DE, timepoint 120",0.9444
same,"UL35 (P16766) protein, numerical value of heatmap FIG. 6C","DE, timepoint 120",1.133
same,"UL38 (P16779) protein, numerical value of heatmap FIG. 6C","DE, timepoint 120",1.272
same,"UL44 (P16790) protein, numerical value of heatmap FIG. 6C","DE, timepoint 120",1.235
same,"UL48 (P16785) protein, numerical value of heatmap FIG. 6C","DE, timepoint 120",1.1
same,"UL54 (P08546) protein, numerical value of heatmap FIG. 6C","DE, timepoint 120",1.415
same,"UL71 (P16823) protein, numerical value of heatmap FIG. 6C","DE, timepoint 120",1.229
same,"UL78 (P16751) protein, numerical value of heatmap FIG. 6C","DE, timepoint 120",0.9208
same,"UL84 (P16727) protein, numerical value of heatmap FIG. 6C","DE, timepoint 120",1.217
same,"UL95 (P16801) protein, numerical value of heatmap FIG. 6C","DE, timepoint 120",0.7275
same,"UL96 (P16787) protein, numerical value of heatmap FIG. 6C","DE, timepoint 120",1.265
same,"UL97 (P16788) protein, numerical value of heatmap FIG. 6C","DE, timepoint 120",1.137
same,"UL98 (P16789) protein, numerical value of heatmap FIG. 6C","DE, timepoint 120",1.14
same,"UL102 (P16827) protein, numerical value of heatmap FIG. 6C","DE, timepoint 120",1.353
same,"UL104 (P16735) protein, numerical value of heatmap FIG. 6C","DE, timepoint 120",0.8938
same,"UL112/UL113 (P17151) protein, numerical value of heatmap FIG. 6C","DE, timepoint 120",0.8795
same,"UL114 (P16769) protein, numerical value of heatmap FIG. 6C","DE, timepoint 120",1.541
same,"UL119/UL118 (P16739) protein, numerical value of heatmap FIG. 6C","DE, timepoint 120",0.8678
same,"UL128 (P16837) protein, numerical value of heatmap FIG. 6C","DE, timepoint 120",1.193
same,"US8 (P09730) protein, numerical value of heatmap FIG. 6C","DE, timepoint 120",1.14
same,"US9 (P09729) protein, numerical value of heatmap FIG. 6C","DE, timepoint 120",1.342
same,"US12 (P09721) protein, numerical value of heatmap FIG. 6C","DE, timepoint 120",0.661
same,"US13 (P09720) protein, numerical value of heatmap FIG. 6C","DE, timepoint 120",0.7786
same,"US14 (P09719) protein, numerical value of heatmap FIG. 6C","DE, timepoint 120",0.6977
same,"US18 (P69334) protein, numerical value of heatmap FIG. 6C","DE, timepoint 120",0.679
same,"US22 (P09722) protein, numerical value of heatmap FIG. 6C","DE, timepoint 120",1.167
same,"US23 (P09701) protein, numerical value of heatmap FIG. 6C","DE, timepoint 120",1.024
same,"US24 (P09700) protein, numerical value of heatmap FIG. 6C","DE, timepoint 120",1.043
same,"gB (P06473) protein, numerical value of heatmap FIG. 6C","DE, timepoint 120",1.203
same,"sp|P09710|IR01_HCMVA (P09710) protein, numerical value of heatmap FIG. 6C","DE, timepoint 120",0.7849
same,"IRS1 (P09715) protein, numerical value of heatmap FIG. 6C","IE, timepoint 24",0.2
same,"TRS1 (P09695) protein, numerical value of heatmap FIG. 6C","IE, timepoint 24",0.1103
same,"UL13 (P16755) protein, numerical value of heatmap FIG. 6C","IE, timepoint 24",0.5131
same,"UL36 (P16767) protein, numerical value of heatmap FIG. 6C","IE, timepoint 24",0.9885
same,"UL37 (P16778) protein, numerical value of heatmap FIG. 6C","IE, timepoint 24",0.5466
same,"UL122 (P19893) protein, numerical value of heatmap FIG. 6C","IE, timepoint 24",0.05364
same,"UL123 (P13202) protein, numerical value of heatmap FIG. 6C","IE, timepoint 24",0.7324
same,"IRS1 (P09715) protein, numerical value of heatmap FIG. 6C","IE, timepoint 48",0.5408
same,"TRS1 (P09695) protein, numerical value of heatmap FIG. 6C","IE, timepoint 48",0.403
same,"UL13 (P16755) protein, numerical value of heatmap FIG. 6C","IE, timepoint 48",0.7812
